Data as given in a melting point compilation (Tetko et al.; mined from patent text by program, amines drawn as free bases though some values may be those of a salt).

Row | melting point [°C] | SMILES
1 | 83 to 84 | CCc1nnc(CCCOc2c(C)cc(-c3noc(C)n3)cc2C)s1
2 | 110 to 112 | C[Si](C)(C)C#Cc1ccc(C(=O)OCc2ccccc2)cc1OCc1ccccc1
3 | > 203 | CC(C)NC1CN(c2c(F)cc3c(=O)c(C(=O)O)cn(-c4nc(N)c(F)cc4F)c3c2Br)C1
4 | 154 | O=[N+]([O-])c1c(NCCO)cc(Cl)cc1NCCO
5 | > 310 | Nc1nc2ncn([C@H]3C=C[C@@H](O)C3)c2c(=O)[nH]1 (racemic)
6 | 165 | CC(=O)OC1CSC(Oc2cnc(-c3ccncc3)c(F)c2)C(OC(C)=O)C1OC(C)=O (configuration not stated)
7 | 125 to 127 | O=[N+]([O-])c1ccc(Oc2cncc(Cl)n2)cc1
8 | 216 to 217 | CC1(C)Cc2c(c(N3CCOCC3)nc3sc4c(NCCCN5CCCC5=O)ncnc4c23)CO1
9 | 225 to 228 | Cc1cc(C(C)(C)C)c(OC(=O)c2cc(C(C)(C)C)c(O)c(C(C)(C)C)c2)c(C)c1COC(=S)c1cc(C(C)(C)C)c(O)c(C(C)(C)C)c1
10 | 183 to 184 | Cc1cccc(-c2ccc(-c3cnn(Cc4ccc([N+](=O)[O-])cc4)c(=O)c3-c3ccc(F)cc3)cc2)c1S(=O)(=O)O
11 | 122 to 128 | C[C@@H](n1cnc2ccccc2c1=O)[C@](O)(Cn1cncn1)c1ccc(F)cc1F
12 | 103 | CC(O)c1cc(F)ccc1Oc1nc2ccc(-n3cc(-c4ccccc4)nn3)cc2cc1Cc1ccccc1 (configuration not stated)
13 | 181 to 182 | Cc1c(OC(F)F)ccnc1CSc1nc2ccc(OC(F)F)cc2[nH]1
14 | > 290 | Cc1ccccc1-c1coc2cc(O)cc(Cl)c2c1=O
15 | 124 to 129 | CNC(=O)N(Cc1ccc(C(C)(C)C)cc1)NC(=O)OC(C)(C)C
16 | 119 to 121 | O=C1CCC(c2ccccc2F)=NN1
17 | 265 | Cn1cc(-c2cc(-c3cnc4[nH]ccc4c3)ccn2)n(-c2cccc(C#N)c2)c1=O
18 | 220 to 222 | CC(C)(C)OC(=O)Nc1ccccc1NC(=O)c1ccc(C(=O)Nc2cccc(Nc3nc(-c4cccnc4)cs3)c2)cn1
19 | 76 to 78 | O=C(Nc1ccc(N2CCNCC2)c(C(F)(F)F)c1)c1ccc(F)c(OCc2cnc3ccccc3c2)c1
20 | 211 to 213 | CC(=O)Nn1c(=O)c(=O)[nH]c2ccccc21
21 | 142 to 146 | CCCOc1ccc(CN2CCC(C(N)=O)CC2)cc1
22 | 138 to 140 | C=CCOc1ccc(S(=O)(=O)c2ccc(C)nc2Nc2c(C)cc(C)cc2C)cc1
23 | 173 | COc1cc(CN2C(=N)c3cc(-c4ccc(F)cc4F)ccc3S2(=O)=O)ccn1

Row | melting point [°C] | SMILES
24 | 187 to 188 | COC(=O)c1ncc[nH]1
25 | 96 to 97 | Cc1c(C)c2c(c(C)c1O)CC(CCI)O2 (racemic)
26 | 176 to 178 | CCCc1nc(C(=O)C(C)(C)C)c(C#N)[nH]1
27 | 192 | C=C1CCCC2CCC3C(CCC4(C)C3C(C=O)C35OCCOC43OCCO5)C12C (configuration not stated)
28 | 149 to 150 | CC(C)(C)C(=O)Nc1ccc(Cl)cc1
29 | 154 to 156 | O=C(O)C1=Cc2cc(Cl)cc(C#CCCCCl)c2OC1C(F)(F)F (configuration not stated)
30 | 134 | COC(=O)C1CN(C(=O)c2cc(OC)c(OC)c(OC)c2)CCN1C(=O)C1=Cc2cc(OC)c(OC)cc2CCC1 (configuration not stated)
31 | 150 | COc1ccc(CN(C)CCCOc2ccc(NC(=O)c3cccc4c(=O)c5cccc(F)c5[nH]c34)cc2)cc1OC
32 | 98 | CC(C)N(C(=O)c1ccc(F)cc1)C1CCN(Cc2ccccc2)CC1
33 | 216 to 218 | COCC(O)c1nc2c(C(F)(F)F)cccc2c(O)c1C(=O)Nc1nccs1 (configuration not stated)
34 | 226 to 229 | O=C(NC(=O)c1c(F)cccc1F)Nc1ccc(Cl)cn1
35 | 218 to 219 | CCCCN(CCCC)c1ccc(C=Cc2ccc(C=CC3=C(C#N)C(=C(C#N)C#N)OC3(C)C)s2)c(O[Si](c2ccccc2)(c2ccccc2)C(C)(C)C)c1
36 | 159 | COc1ccc(CNC(=O)n2cc(F)c(=O)[nH]c2=O)c(OC)c1OC
37 | 158 to 159 | CCOC(=O)C1=CN(c2ccc(Cl)c(Cl)c2Cl)N(N)C1
38 | 133 to 137 | NC(=O)N1CC(Oc2ccccn2)C1
39 | 182 to 184 | C[C@@H]1c2ccccc2-c2ccc(F)cc2N1C(=O)c1ccc(O)cc1O
40 | 65 to 66 | CCOC(=O)/C(=C\Nc1cc(OC)ccc1OC)c1ccc(OC)cc1
41 | 147 | OCC1OC(n2cnc3c(NCc4ccccc4)nc(Cl)nc32)CC1O (configuration not stated)
42 | 199 to 201 | CCC1c2ccc(C)n2-c2ccc(F)cc2N1S(=O)(=O)c1ccc(O)c(C)c1 (configuration not stated)
43 | 105 to 106 | O=c1c2cccnc2sc(=Nc2ccccc2)n1Cc1ccccc1
44 | 146 to 148 | Oc1ccccc1-c1cc(-c2ccc(F)c(F)c2)cc(-c2ccc(Cl)cc2)n1
45 | 200 to 202 | O=C(NCc1ccc(Br)cc1)c1cn(N2CCOCC2)c2ccc(CN3CCOCC3)cc2c1=O
46 | 179 | CC(C)C[C@H](NC(=O)c1cccc(Cl)c1)C(=O)N[C@@H](C(C)C)[C@@H](O)c1c(-c2ccccc2)c1=O

Row | melting point [°C] | SMILES
47 | 145 to 148 | COc1cc(OC)cc(-c2nc(-c3ccccn3)no2)c1
48 | 169 to 173 | COc1cc2c3c(c1)c(=O)c(Cc1cccnc1)cn3-c1cc(Br)ccc1S2
49 | 165 to 169 | Cc1ccc(CSCCCCCOc2ccc(C3=C(c4ccccc4)CCCc4cc(O)ccc43)cc2)cc1
50 | 75 to 79 | COC(=O)c1ccc(OCCNC(=O)C2Cc3ccccc3N2S(=O)(=O)c2ccc(-c3cccc(C(F)(F)F)c3)cc2)cc1C(F)(F)F (configuration not stated)
51 | 166 to 169 | O=C(NC(=O)c1ccccc1)NC1CCCc2ccccc21 (configuration not stated)
52 | 54 | CCCCc1nn2c(C)cccc2c1Cc1ccc(Br)cc1
53 | 122 | CCN1CCc2cc(S(=O)(=O)C[N+](=O)[O-])ccc21
54 | 54 to 56 | CN(C)Cc1cc(C(C)(C)C)cc(C(C)(C)C)c1O
55 | 82 to 85 | CC=CCNc1ccc(Oc2nc(OC)cc(OC)n2)c(C(=O)OC)n1
56 | 135 to 138 | COc1cc(C=C(CC(=O)N2CCOCC2)C(=O)O)cc(OC)c1OC
57 | 187 to 190 | Cc1nc(-c2ccccc2)oc1C(N)=O
58 | 99 | O=S(=O)(c1ccc(Cl)cc1)N1CCCC1c1cccc(Cl)c1 (racemic)
59 | 182 to 184 | NC1=NN(c2ccc(Cl)c(Cl)c2)CC1
60 | 97 to 99 | COc1ccc2c(c1)-c1ccccc1C=CC(O)=C2
61 | 236 | CCCCc1ccc(-c2[nH]c(=O)n(C3CCCCC3)c2C)cc1
62 | 130 to 131 | Cc1ccc(NC(Nc2ccc(C)cc2)Nc2ccc(C)cc2)cc1
63 | 120 to 170 | O=S(c1[nH]c(-c2ccc(Cl)cc2)c(S(=O)(=O)C(F)(F)F)c1Br)C(F)(F)F (configuration not stated)
64 | 288 to 290 | CCn1cc(C(=O)O)c(=O)c2cc(N)c(-c3cc(C)nc(C)c3)cc21
65 | 205 | N#Cc1cccc(CN2C(=O)c3ccccc3C2=O)n1
66 | 93 to 95 | COc1ccc(-c2ccc(C#N)cc2)nc1
67 | 138 to 139 | CCCCC(Oc1ccc(CCNS(=O)(=O)c2ccc(Cl)cc2)cc1)C(=O)O (configuration not stated)
68 | 97 to 103 | CC1C=CCCC1C1OC(=O)NC1=O (configuration not stated)
69 | 125 to 130 | Cc1cnc(C(=O)O)c(-c2ccc(Cl)c(C(=O)NCC34CC5CC(CC(C5)C3)C4)c2)c1

Row | melting point [°C] | SMILES
70 | 224 to 227 | CN1CCN(C(=O)c2cnn(C)c2C(=O)Nc2ccn3nc(-c4cccc(F)c4)nc3c2)CC1
71 | 103 to 105 | COc1ccc(OC)c2c(Nc3cccc(N(C)C)c3)c(C#N)cnc12
72 | 193 to 195 | CC(C)=C1C(=O)N(c2ccc(N)cc2)C(=O)/C1=C(\C)c1cc(-c2ccccc2)sc1C
73 | 216 to 218 | NC(=O)N(O)Cc1cc(-c2ccc(Cl)cc2)n(-c2ccc(S(N)(=O)=O)cc2)n1
74 | 194 to 197 | C=CCn1cc(C(=O)O)c(=O)c2cc(F)c(F)c(F)c21
75 | 96 to 99 | O=[N+]([O-])c1ccc(Sc2ccc(OCC3CO3)cc2)cc1 (configuration not stated)
76 | 169 to 170 | Nc1cnc(-c2cccc(Cl)c2Cl)c(N)n1
77 | 90 to 91 | O=C1c2ccccc2C(=O)N1CCCCCCCCCCOc1ccc(-n2ccnc2)cc1
78 | 112 | Cc1cc(C2=NCCc3ccccc32)n(C)n1
79 | 246 to 247 | CC(=Cc1c[nH]c2ccc3c(c12)CCCO3)[N+](=O)[O-]
80 | 220 to 222 | CCOC(=O)c1c(N=Cc2cccs2)sc(N=Cc2ccc([N+](=O)[O-])s2)c1C(=O)OCC
81 | 160 to 162 | O=c1[nH]c2ccccc2c(=O)n1CCCCCn1ccnc1
82 | 140 to 141 | COc1ccc(N2CCN(c3c(C)c(C)c4c(c3C)C(CO)C(C)(C)O4)CC2)cc1 (configuration not stated)
83 | 101 to 102 | COC(=O)c1ccc(OCCCc2ccccc2)cc1O
84 | 191 to 193 | O=C(O)c1cc(=O)c2c(OCC(O)COc3ccc(Cl)cc3)cccc2o1 (configuration not stated)
85 | 212 | COc1ccccc1N(CC(=O)N(C)c1ccccc1)C(=O)CNC(=O)Nc1cccc(C)c1
86 | 60 | C#CCOC(=O)Oc1ccc(Cc2ccc(OC(=O)OCC#C)cc2)cc1
87 | 158 to 159 | OCc1ccc2oc(-c3cccs3)nc2c1
88 | 268 to 269 | Oc1ncnc2nc(C(F)(F)F)ccc12
89 | 78 to 81 | O=CCC1Cc2cc(F)c(F)cc2C1=O (racemic)
90 | 138 to 146 | COc1cccc(C2=CC(=O)N(C)C2=O)c1

Row | SMILES | melting point [°C]
91 | CC(C)(C)OC(=O)c1ncn2c1C1C=CCN1C(=O)c1c(Cl)cccc1-2 (configuration not stated) | 227 to 229
92 | COP(=O)(OC)C(O)c1ccccc1 (configuration not stated) | 85 to 86
93 | COC(=O)/C=C/c1ccc(CC(C)NCC(O)c2cccc(C(F)(F)F)c2)cc1 (configuration not stated) | 80 to 83
94 | CCCCCN1CC[C@@H](c2ccc(Br)cc2)[C@H](CO)C1 (racemic) | 128 to 130
95 | Cc1ccc(C(C)(O)P(O)O)cc1 (configuration not stated) | 115
96 | O=C(O)c1[nH]c(=O)n2c1CN=C(c1ccccc1Cl)c1cc(Cl)ccc1-2 | 236 to 238
97 | CN1CCN(c2cnc3cc(Cl)ccc3n2)CC1 | 151 to 152
